# Values of other authors, collected in patent US20220062479A1, “Disinfection Bomb” (priority 2020, published 2022).
# What was measured:
# Staphylococcus aureus = conditions: by way of background
# E. coli = conditions: it has been shown
# Streptococcus pyogenes = conditions: by way of background
# Pseudomonas aeruginosa = conditions: it has been shown
smiles,measurement,setting,value
CCO [ethanol],contact time to kill Staphylococcus aureus,Staphylococcus aureus,at least 10 seconds
same,contact time that allows the ethanol to kill E. coli,E. coli,10 s
same,contact time to kill Streptococcus pyogenes,Streptococcus pyogenes,at least 10 seconds
same,contact time that allows the ethanol to kill Pseudomonas aeruginosa,Pseudomonas aeruginosa,10 s
